{
  "source": "ChEMBL document CHEMBL3785071",
  "about": "“Development of potential broad spectrum antimicrobials using C2-symmetric 9-fluorenone alkyl amine” (Bioorg Med Chem Lett, 2016)",
  "key": {"Yersinia pestis [1]": {"system": "Yersinia pestis", "test": "Antibacterial activity against Yersinia pestis A1122 at 100 ug/ml after 20 hrs", "format": "functional"}, "Bacillus anthracis": {"system": "Bacillus anthracis", "test": "Antibacterial activity against Bacillus anthracis Sterne after 20 hrs", "format": "functional"}, "Burkholderia cepacia [2]": {"system": "Burkholderia cepacia", "test": "Antibacterial activity against Burkholderia cepacia ATCC 25608 after 20 hrs", "format": "functional"}, "[3]": {"system": "Burkholderia thailandensis", "test": "Antibacterial activity against Burkholderia thailandensis ATCC 700388 after 20 hrs", "format": "functional"}, "[4]": {"test": "Antibacterial activity against Francisella tularensis subsp. holarctica ATCC 29684 after 20 hrs", "format": "functional", "details": "ATCC 29684, 20 h"}, "Klebsiella pneumoniae [5]": {"system": "Klebsiella pneumoniae", "test": "Antibacterial activity against Klebsiella pneumoniae ATCC BAA-1706 after 20 hrs", "format": "functional", "details": "ATCC BAA-1706, 20 h"}, "Staphylococcus aureus [6]": {"system": "Staphylococcus aureus", "test": "Antibacterial activity against Staphylococcus aureus ATCC 25923 after 20 hrs", "format": "functional"}, "Staphylococcus aureus [7]": {"system": "Staphylococcus aureus", "test": "Antibacterial activity against methicillin-resistant Staphylococcus aureus Lac JE2 USA300 after 20 hrs", "format": "functional", "details": "LAC JE2 USA300, 20 h"}, "Escherichia coli [8]": {"system": "Escherichia coli", "test": "Antibacterial activity against Escherichia coli ATCC 35218 at 100 ug/ml after 20 hrs", "format": "functional, organism-based"}, "Pseudomonas aeruginosa [9]": {"system": "Pseudomonas aeruginosa", "test": "Antibacterial activity against Pseudomonas aeruginosa ATCC 27853 at 100 ug/ml after 20 hrs", "format": "functional, organism-based"}, "Staphylococcus aureus [10]": {"system": "Staphylococcus aureus", "test": "Antibacterial activity against methicillin-resistant Staphylococcus aureus Lac JE2 USA300 at 100 ug/ml after 20 hrs", "format": "functional, organism-based"}, "Pseudomonas aeruginosa [11]": {"system": "Pseudomonas aeruginosa", "test": "Antibacterial activity against Pseudomonas aeruginosa ATCC 27853 after 20 hrs", "format": "functional", "details": "ATCC 27853, 20 h"}, "[12]": {"system": "Burkholderia thailandensis", "test": "Antibacterial activity against Burkholderia thailandensis ATCC 700388 at 100 ug/ml after 20 hrs", "format": "functional"}, "[13]": {"system": "Francisella tularensis subsp. holarctica", "test": "Antibacterial activity against Francisella tularensis subsp. holarctica ATCC 29684 at 100 ug/ml after 20 hrs", "format": "functional"}, "Klebsiella pneumoniae [14]": {"system": "Klebsiella pneumoniae", "test": "Antibacterial activity against Klebsiella pneumoniae ATCC BAA-1706 at 100 ug/ml after 20 hrs", "format": "functional, organism-based"}, "Staphylococcus aureus [15]": {"system": "Staphylococcus aureus", "test": "Antibacterial activity against Staphylococcus aureus ATCC 25923 at 100 ug/ml after 20 hrs", "format": "functional, organism-based"}, "Burkholderia cepacia [16]": {"system": "Burkholderia cepacia", "test": "Antibacterial activity against Burkholderia cepacia ATCC 25608 at 100 ug/ml after 20 hrs", "format": "functional, organism-based"}, "Staphylococcus aureus [17]": {"system": "Staphylococcus aureus", "test": "Inhibition of Staphylococcus aureus DnaG primase activity after 1 hr by HPLC analysis"}, "[18]": {"test": "Inhibition of Bacillus anthracis Sterne 34F2 DnaG primase activity using a DNA 32-mer template", "set-up": "species or system Bacillus anthracis str. Sterne"}, "Escherichia coli [19]": {"system": "Escherichia coli", "test": "Antibacterial activity against Escherichia coli ATCC 35218 after 20 hrs", "format": "functional", "details": "ATCC 35218, 20 h"}, "Yersinia pestis [20]": {"system": "Yersinia pestis", "test": "Antibacterial activity against Yersinia pestis A1122 after 20 hrs", "format": "functional", "details": "A1122, 20 h"}},
  "note": "Activity calls are given as the source filed them. No cut-off for these calls is given here.",
  "data": [
    {"smiles": "O=C1c2cc(OCCCCCCCCN3CCCCC3)ccc2-c2ccc(OCCCCCCCCN3CCCCC3)cc21", "values": [
      {"measurement": "Activity", "setting": "Yersinia pestis [1]", "value": "inactive"},
      {"measurement": "MIC", "setting": "Bacillus anthracis", "value": 17.5, "unit": "µg/mL"},
      {"measurement": "MIC", "setting": "Burkholderia cepacia [2]; ATCC 25608, 20 h", "value": 87.5, "unit": "µg/mL"},
      {"measurement": "MIC", "setting": "[3]; ATCC 700388, 20 h", "value": 25, "unit": "µg/mL"},
      {"measurement": "MIC", "setting": "[4]", "value": 37.5, "unit": "µg/mL"},
      {"measurement": "MIC", "setting": "Klebsiella pneumoniae [5]", "value": 100, "unit": "µg/mL"},
      {"measurement": "MIC", "setting": "Staphylococcus aureus [6]; ATCC 25923, 20 h", "value": 62.5, "unit": "µg/mL"},
      {"measurement": "MIC", "setting": "Staphylococcus aureus [7]", "value": 16, "unit": "µg/mL"},
      {"measurement": "Activity", "setting": "Escherichia coli [8]", "value": "inactive"},
      {"measurement": "Activity", "setting": "Pseudomonas aeruginosa [9]", "value": "inactive"}
    ]},
    {"smiles": "O=C1c2cc(OCCCN3CCCCC3)ccc2-c2ccc(OCCCN3CCCCC3)cc21", "values": [
      {"measurement": "Activity", "setting": "Yersinia pestis [1]", "value": "inactive"},
      {"measurement": "Activity", "setting": "Staphylococcus aureus [10]", "value": "inactive"},
      {"measurement": "MIC", "setting": "Bacillus anthracis", "value": 75, "unit": "µg/mL"},
      {"measurement": "MIC", "setting": "Burkholderia cepacia [2]", "value": "inactive"},
      {"measurement": "MIC", "setting": "Pseudomonas aeruginosa [11]", "value": 100, "unit": "µg/mL"},
      {"measurement": "Activity", "setting": "[12]", "value": "inactive"},
      {"measurement": "Activity", "setting": "Escherichia coli [8]", "value": "inactive"},
      {"measurement": "Activity", "setting": "[13]", "value": "inactive"},
      {"measurement": "Activity", "setting": "Klebsiella pneumoniae [14]", "value": "inactive"},
      {"measurement": "Activity", "setting": "Staphylococcus aureus [15]", "value": "inactive"}
    ]},
    {"smiles": "O=C1c2cc(OCCN3CCCCC3)ccc2-c2ccc(OCCN3CCCCC3)cc21", "values": [
      {"measurement": "Activity", "setting": "Yersinia pestis [1]", "value": "inactive"},
      {"measurement": "Activity", "setting": "Staphylococcus aureus [10]", "value": "inactive"},
      {"measurement": "MIC", "setting": "Bacillus anthracis", "value": 100, "unit": "µg/mL"},
      {"measurement": "MIC", "setting": "Burkholderia cepacia [2]; ATCC 25608, 20 h", "value": 100, "unit": "µg/mL"},
      {"measurement": "Activity", "setting": "[12]", "value": "inactive"},
      {"measurement": "Activity", "setting": "Escherichia coli [8]", "value": "inactive"},
      {"measurement": "Activity", "setting": "[13]", "value": "inactive"},
      {"measurement": "Activity", "setting": "Klebsiella pneumoniae [14]", "value": "inactive"},
      {"measurement": "Activity", "setting": "Pseudomonas aeruginosa [9]", "value": "inactive"},
      {"measurement": "Activity", "setting": "Staphylococcus aureus [15]", "value": "inactive"}
    ]},
    {"smiles": "C=CCN(C)CCOc1ccc2c(c1)C(=O)c1cc(OCCN(C)CC=C)ccc1-2", "values": [
      {"measurement": "Activity", "setting": "Yersinia pestis [1]", "value": "inactive"},
      {"measurement": "Activity", "setting": "Staphylococcus aureus [10]", "value": "inactive"},
      {"measurement": "MIC", "setting": "Bacillus anthracis", "value": 100, "unit": "µg/mL"},
      {"measurement": "Activity", "setting": "Burkholderia cepacia [16]", "value": "inactive"},
      {"measurement": "Activity", "setting": "[12]", "value": "inactive"},
      {"measurement": "Activity", "setting": "Escherichia coli [8]", "value": "inactive"},
      {"measurement": "Activity", "setting": "[13]", "value": "inactive"},
      {"measurement": "Activity", "setting": "Klebsiella pneumoniae [14]", "value": "inactive"},
      {"measurement": "Activity", "setting": "Pseudomonas aeruginosa [9]", "value": "inactive"},
      {"measurement": "Activity", "setting": "Staphylococcus aureus [15]", "value": "inactive"}
    ]},
    {"smiles": "C=CCOc1ccc2c(c1)C(=O)c1cc(OCCCN(C)CC=C)ccc1-2", "values": [
      {"measurement": "Activity", "setting": "Yersinia pestis [1]", "value": "inactive"},
      {"measurement": "MIC", "setting": "Bacillus anthracis", "value": 25, "unit": "µg/mL"},
      {"measurement": "MIC", "setting": "[4]", "value": 50, "unit": "µg/mL"},
      {"measurement": "MIC", "setting": "Staphylococcus aureus [7]", "value": 32, "unit": "µg/mL"},
      {"measurement": "Activity", "setting": "Burkholderia cepacia [16]", "value": "inactive"},
      {"measurement": "Activity", "setting": "[12]", "value": "inactive"},
      {"measurement": "Activity", "setting": "Escherichia coli [8]", "value": "inactive"},
      {"measurement": "Activity", "setting": "Klebsiella pneumoniae [14]", "value": "inactive"},
      {"measurement": "Activity", "setting": "Pseudomonas aeruginosa [9]", "value": "inactive"},
      {"measurement": "Activity", "setting": "Staphylococcus aureus [15]", "value": "inactive"}
    ]},
    {"smiles": "C=CCN(C)CCCCCCCCOc1ccc2c(c1)C(=O)c1cc(OCCCCCCCCN(C)CC=C)ccc1-2", "values": [
      {"measurement": "Activity", "setting": "Yersinia pestis [1]", "value": "inactive"},
      {"measurement": "MIC", "setting": "Bacillus anthracis", "value": 17.5, "unit": "µg/mL"},
      {"measurement": "MIC", "setting": "Burkholderia cepacia [2]; ATCC 25608, 20 h", "value": 100, "unit": "µg/mL"},
      {"measurement": "MIC", "setting": "[3]; ATCC 700388, 20 h", "value": 17.5, "unit": "µg/mL"},
      {"measurement": "MIC", "setting": "[4]", "value": 37.5, "unit": "µg/mL"},
      {"measurement": "MIC", "setting": "Staphylococcus aureus [6]; ATCC 25923, 20 h", "value": 50, "unit": "µg/mL"},
      {"measurement": "MIC", "setting": "Staphylococcus aureus [7]", "value": 16, "unit": "µg/mL"},
      {"measurement": "Activity", "setting": "Escherichia coli [8]", "value": "inactive"},
      {"measurement": "Activity", "setting": "Klebsiella pneumoniae [14]", "value": "inactive"},
      {"measurement": "Activity", "setting": "Pseudomonas aeruginosa [9]", "value": "inactive"}
    ]},
    {"smiles": "CCN(CC)CCOc1ccc2c(c1)C(=O)c1cc(OCCN(CC)CC)ccc1-2", "note": "[TILORONE]", "values": [
      {"measurement": "Activity", "setting": "Staphylococcus aureus [6]", "value": "inactive"},
      {"measurement": "inhibition", "setting": "Staphylococcus aureus [17]", "value": "Active"},
      {"measurement": "IC50", "setting": "[18]", "value": 7.1, "unit": "µM"}
    ]},
    {"smiles": "C=CCN(C)CCCOc1ccc2c(c1)C(=O)c1cc(OCCCN(C)CC=C)ccc1-2", "values": [
      {"measurement": "Activity", "setting": "Staphylococcus aureus [10]", "value": "inactive"},
      {"measurement": "MIC", "setting": "Bacillus anthracis", "value": 100, "unit": "µg/mL"},
      {"measurement": "MIC", "setting": "Burkholderia cepacia [2]; ATCC 25608, 20 h", "value": 100, "unit": "µg/mL"},
      {"measurement": "MIC", "setting": "[3]", "value": "inactive"},
      {"measurement": "MIC", "setting": "Escherichia coli [19]", "value": 100, "unit": "µg/mL"},
      {"measurement": "MIC", "setting": "Pseudomonas aeruginosa [11]", "value": 100, "unit": "µg/mL"},
      {"measurement": "MIC", "setting": "Staphylococcus aureus [6]", "value": "inactive"},
      {"measurement": "MIC", "setting": "Yersinia pestis [20]", "value": 100, "unit": "µg/mL"},
      {"measurement": "Activity", "setting": "[13]", "value": "inactive"},
      {"measurement": "Activity", "setting": "Klebsiella pneumoniae [14]", "value": "inactive"}
    ]}
  ]
}
